Data: US10544106B2, “Certain chemical entities, compositions, and methods” (NeuPharma, Inc., priority 2016, dated 2020)

Target: BTK (Homo sapiens (Human), UniProt Q06187)
Experiment: Z'-LYTE kinase inhibition assay against BTK
Format: biochemical
Conditions: for inhibition at 0.1 µM: compound at 100 nM, ATP concentration at Km; for IC50: series of concentrations, GraphPad Prism 5
Protocol: Inhibitory activities of compounds against BTK, EGFR T790M, EGFR L858R, and EGFR L858R/T790M were measured using Z′-LYTE® Method from Life Technologies as briefly described in the following.
Test Compounds are screened in 1% DMSO (final) in the well. For 10 point titrations, 3-fold serial dilutions are conducted from the starting concentration. All ATP Solutions are diluted to a 4× working concentration in Kinase Buffer (50 mM HEPES pH 7.5, 0.01% BRIJ-35, 10 mM MgCl2, 1 mM EGTA). Peptide/Kinase Mixtures are diluted to a 2× working concentration in the appropriate Kinase Buffers as described below. • (i) Peptide/Kinase Mixtures for measurement of EGFR (ErbB1) L858R: • The 2×EGFR (ErbB1) L858R/Tyr 04 mixture is prepared in 50 mM HEPES pH 7.5, 0.01% BRIJ-35, 10 mM MgCl2, 4 mM MnCl2. 1 mM EGTA, 2 mM DTT. The final 10 μL Kinase Reaction consists of 0.2-1.68 ng EGFR (ErbB1) L858R and 2 μM Tyr 04 in 50 mM HEPES pH 7.5, 0.01% BRIJ-35, 10 mM MgCl2, 2 mM MnCl2, 1 mM EGTA, 1 mM DTT. After the 1 hour Kinase Reaction incubation, 5 μL of a 1:64 dilution of Development Reagent B is added. • (ii) Peptide/Kinase Mixtures for measurement of EGFR (ErbB1) T790M: The 2×EGFR (ErbB1) T790M/Tyr 04 mixture is prepared in 50 mM HEPES pH 6.5, 0.01% BRIJ-35, 10 mM MgCl2, 1 mM EGTA, 0.02% NaN3. The final 10 μL Kinase Reaction consists of 3.9-30.2 ng EGFR (ErbB1) T790M and 2 μM Tyr 04 in 50 mM HEPES pH 7.0, 0.01% BRIJ-35, 10 mM MgCl2, 1 mM EGTA, 0.01% NaN3. After the 1 hour Kinase Reaction incubation, 5 μL of a 1:64 dilution of Development Reagent B is added. • (iii) Peptide/Kinase Mixtures for measurement of EGFR (ErbB1) L858R/T790M: The 2×EGFR (ErbB1) T790M L858R/Tyr 04 mixture is prepared in 50 mM HEPES pH 6.5, 0.01% BRIJ-35, 10 mM MgCl2, 1 mM EGTA, 0.02% NaN3. The final 10 μL Kinase Reaction consists of 0.38-4.22 ng EGFR (ErbB1) T790M L858R and 2 μM Tyr 04 in 50 mM HEPES pH 7.0, 0.01% BRIJ-35, 10 mM MgCl2, 1 mM EGTA, 0.01% NaN3. After the 1 hour Kinase Reaction incubation, 5 μL of a 1:64 dilution of Development Reagent B is added. • (iv) Peptide/Kinase Mixtures for measurement of BTK: The 2×BTK/Tyr 01 mixture is prepared in 50 mM HEPES pH 7.5, 0.010/BRIJ-35, 10 mM MgCl2, 1 mM EGTA. The final 10 μL Kinase Reaction consists of 1.04-10.4 ng BTK and 2 μM Tyr 01 in 50 mM HEPES pH 7.5, 0.01% BRIJ-35, 10 mM MgCl2, 1 mM EGTA. After the 1 hour Kinase Reaction incubation, 5 μL of a 1:256 dilution of Development Reagent B is added.
Reaction starts by 30-second shaking of mixture consisting of 2.5 μL 4× test compound, 5 μL 2× kinase reaction mixture and 2.5 μL 4×ATP Solution on Bar-coded Corning, low volume NBS, black 384-well plate (Corning Cat. #3676). Then the mixture is incubated for 60-minute at room temperature for the kinase reaction, followed by addition of 5 μL of a 1:1024 dilution of development reagent A and 30-second plate shake. The mixture is then incubated for another 60-minute at room temperature for development reaction. Finally fluorescence is read by plate reader.
The Z′-LYTE assay was carried out with ATP concentration at Km. The scale utilized in Tables 2-6 is as follows: ++ more than 50% inhibition and + less than 50% inhibition.
To determine IC50 of a compound against a kinase, a series of concentrations of the compound were tested for the inhibition. IC50 was calculated by plotting the concentration of compound vs the percentage of inhibition in treated wells using GraphPad Prism 5. […] The scale utilized in Table 7 is as follows: ++ less than 100 nM and + greater than 100 nM.

BTK, sequence (Q06187 whole entry): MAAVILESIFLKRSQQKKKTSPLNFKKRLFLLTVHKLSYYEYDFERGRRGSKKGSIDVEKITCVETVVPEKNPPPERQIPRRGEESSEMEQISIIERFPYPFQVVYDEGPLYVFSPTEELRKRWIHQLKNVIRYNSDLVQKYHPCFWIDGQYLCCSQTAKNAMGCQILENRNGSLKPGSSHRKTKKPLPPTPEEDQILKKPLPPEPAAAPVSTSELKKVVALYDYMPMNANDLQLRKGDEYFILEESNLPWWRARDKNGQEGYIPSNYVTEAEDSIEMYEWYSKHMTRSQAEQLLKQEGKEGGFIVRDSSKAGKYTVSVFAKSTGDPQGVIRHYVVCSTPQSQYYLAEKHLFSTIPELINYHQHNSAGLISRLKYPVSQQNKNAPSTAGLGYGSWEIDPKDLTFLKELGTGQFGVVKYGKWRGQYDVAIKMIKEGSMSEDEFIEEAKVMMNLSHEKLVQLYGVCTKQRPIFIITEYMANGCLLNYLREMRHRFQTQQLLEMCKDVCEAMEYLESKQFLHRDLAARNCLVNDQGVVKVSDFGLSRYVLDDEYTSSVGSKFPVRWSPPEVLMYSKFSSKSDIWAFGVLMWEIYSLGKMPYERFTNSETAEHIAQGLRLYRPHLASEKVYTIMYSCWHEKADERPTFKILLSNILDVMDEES

Row | Compound | inhibition at 0.1 µM [%] | IC50 [nM]
1 | C=CC(=O)N1CCC(c2cc(-c3ccc(Oc4ccccn4)cc3)c(N)c3cncnc23)C1 (centres unmarked) [C181, 1-(3-(5-amino-6-(4-(pyridin-2-yloxy)phenyl)quinazolin-8-yl)pyrrolidin-1-yl)prop-2-en-1-one] | < 50 | –
2 | C=CC(=O)N1CCC(c2cc(-c3ccc(C(=O)Nc4cc(C#N)ccn4)cc3)cc3cncnc23)C1 (centres unmarked) [C124, 4-(8-(1-acryloylpyrrolidin-3-yl)quinazolin-6-yl)-N-(4-cyanopyridin-2-yl)benzamide] | < 50 | –
3 | C=CC(=O)Nc1cccc(-c2cc(-c3ccc(Oc4cc(C#N)ccn4)cc3F)cc3cncnc23)c1 [C189, N-(3-(6-(4-((4-cyanopyridin-2-yl)oxy)-2-fluorophenyl)quinazolin-8-yl)phenyl)acrylamide] | > 50 | < 100
4 | C=CC(=O)Nc1cccc(-c2ccc(-c3ccc(C(=O)Nc4ccccn4)cc3)c3cncnc23)c1 [C039, 4-(8-(3-acrylamidophenyl)quinazolin-5-yl)-N-(pyridin-2-yl)benzamide] | < 50 | –
5 | C=CC(=O)Nc1cccc(-c2cc(-c3ccc(C(=O)Nc4cc(C(F)(F)F)ccn4)c(OC)c3)cc3cncnc23)c1 [C145, 4-(8-(3-acrylamidophenyl)quinazolin-6-yl)-2-methoxy-N-(4-(trifluoromethyl)pyridin-2-yl)benzamide] | < 50 | –
6 | C=CC(=O)Nc1cccc(-c2cc(-c3ccc(C(=O)Nc4ccccn4)cc3)c(N)c3cncnc23)c1 [C170, 4-(8-(3-acrylamidophenyl)-5-aminoquinazolin-6-yl)-N-(pyridin-2-yl)benzamide] | < 50 | –
7 | C=CC(=O)N1CCC(c2cc(-c3ccc(C(=O)Nc4cccc(F)c4)nc3)cc3cncnc23)C1 (centres unmarked) [C097, 5-(8-(1-acryloylpyrrolidin-3-yl)quinazolin-6-yl)-N-(3-fluorophenyl)picolinamide] | < 50 | –
8 | C=CC(=O)N1CCC(c2cc(-c3ccc(C(=O)Nc4cc(C(F)(F)F)ccn4)c(F)c3)n3cnccc23)C1 (centres unmarked) [C152, 4-(5-(1-acryloylpyrrolidin-3-yl)pyrrolo[1,2-c]pyrimidin-7-yl)-2-fluoro-N-(4-(trifluoro-methyl)pyridin-2-yl)benzamide] | < 50 | –
9 | C=CC(=O)N1CCC(c2cc(-c3ccc(C(=O)Nc4ccccc4)nc3)cc3cncnc23)C1 (centres unmarked) [C060, 5-(8-(1-acryloylpyrrolidin-3-yl)quinazolin-6-yl)-N-phenylpicolinamide] | < 50 | –
10 | C=CC(=O)N1CCC(c2cc(-c3ccc(Oc4ccccc4)cc3)cc3cncnc23)C1 (centres unmarked) [C048, 1-(3-(6-(4-phenoxyphenyl)quinazolin-8-yl)pyrrolidin-1-yl)prop-2-en-1-one] | > 50 | < 100
11 | C=CC(=O)Nc1cccc(-c2cc(-c3ccc(C(=O)Nc4cc(C(N)=O)ccn4)cc3)cc3cncnc23)c1 [C138, 2-(4-(8-(3-acrylamidophenyl)quinazolin-6-yl)benzamido)isonicotinamide] | < 50 | –
12 | C=CC(=O)N1CCC(c2nc(-c3ccc(Oc4ccccn4)c(OC)c3)n3c(N)nccc23)C1 (centres unmarked) [C212, 1-(3-(5-amino-3-(3-methoxy-4-(pyridin-2-yloxy)phenyl)imidazo[1,5-c]pyrimidin-1-yl)pyrrolidin-1-yl)prop-2-en-1-one] | > 50 | < 100
13 | C=CC(=O)N1CCC(c2cc(-c3ccc(C(=O)Nc4cc(C(N)=O)ccn4)cc3)cc3cncnc23)C1 (centres unmarked) [C128, 2-(4-(8-(1-acryloylpyrrolidin-3-yl)quinazolin-6-yl)benzamido)isonicotinamide] | < 50 | –
14 | C=CC(=O)N1CCC(c2cc(-c3ccc(C(=O)Nc4cc(C#N)ccn4)cc3)n3cnccc23)C1 (centres unmarked) [C161, 4-(5-(1-acryloylpyrrolidin-3-yl)pyrrolo[1,2-c]pyrimidin-7-yl)-N-(4-cyanopyridin-2-yl)benzamide] | > 50 | < 100
15 | C=CC(=O)N1CCC(n2c(-c3ccccc3Cl)nc3cnc(N)nc32)C1 (centres unmarked) [C026, 1-(3-(2-amino-8-(2-chlorophenyl)-9H-purin-9-yl)pyrrolidin-1-yl)prop-2-en-1-one] | < 50 | –
16 | C=CC(=O)Nc1cccc(-c2cc(-c3ccc(Oc4cc(C5CC5)ccn4)cc3F)cc3cncnc23)c1 [C198, N-(3-(6-(4-((4-cyclopropylpyridin-2-yl)oxy)-2-fluorophenyl)quinazolin-8-yl)phenyl)acrylamide] | > 50 | < 100
17 | C=CC(=O)Nc1cccc(-c2cc(-c3ccccn3)cc3cncnc23)c1 [C118, N-(3-(6-(pyridin-2-yl)quinazolin-8-yl)phenyl)acrylamide] | > 50 | –
18 | C=CC(=O)N1CCC(c2ccc(-c3ccc(C(=O)Nc4ccccn4)cc3)c3c(N)ncnc23)C1 (centres unmarked) [C056, 4-(8-(1-acryloylpyrrolidin-3-yl)-4-amino-quinazolin-5-yl)-(N-pyridin-2-yl)benzamide] | < 50 | –
19 | C=CC(=O)Nc1cccc(-c2cc(-c3ccc(Oc4ncccc4Cl)cc3F)cc3cncnc23)c1 [C106, N-(3-(6-(4-((3-chloropyridin-2-yl)oxy)-2-fluorophenyl)quinazolin-8-yl)phenyl)acrylamide] | > 50 | < 100
20 | C=CC(=O)N1CCC(c2nc(-c3ccc(Oc4ncccc4C(F)(F)F)cc3)n3c(N)nccc23)C1 (centres unmarked) [C218, 1-(3-(5-amino-3-(4-((3-(trifluoro-methyl)pyridin-2-yl)oxy)phenyl)imidazo[1,5-c]pyrimidin-1-yl)pyrrolidin-1-yl)prop-2-en-1-one] | > 50 | < 100
21 | C=CC(=O)Nc1cccc(-c2nc(-c3ccc(Oc4ncccc4C(F)(F)F)cc3)n3c(N)nccc23)c1 [C220, N-(3-(5-amino-3-(4-((3-(trifluoromethyl)pyridin-2-yl)oxy)phenyl)imidazo[1,5-c]pyrimidin-1-yl)phenyl)acrylamide] | > 50 | –
22 | CC#CC(=O)N1CCC(c2nc(-c3ccc(Oc4ncccc4F)cc3)n3c(N)nccc23)C1 (centres unmarked) [C228, 1-(3-(5-amino-3-(4-((3-fluoropyridin-2-yl)oxy)phenyl)imidazo[1,5-c]pyrimidin-1-yl)pyrrolidin-1-yl)but-2-yn-1-one] | – | < 100
23 | C=CC(=O)N1CCC(c2nc(-c3ccc(Oc4ncccc4C(F)(F)F)c(F)c3)n3c(N)nccc23)C1 (centres unmarked) [C223, 1-(3-(5-amino-3-(3-fluoro-4-((3-(trifluoro-methyl)pyridin-2-yl)oxy)phenyl)imidazo[1,5-c]pyrimidin-1-yl)pyrrolidin-1-yl)prop-2-en-1-one] | > 50 | –
24 | C=CC(=O)N1CCC(c2cc(-c3cncc(C(F)(F)F)c3)cc3cncnc23)C1 (centres unmarked) [C066, 1-(3-(6-(5-(trifluoromethyl)pyridin-3-yl)quinazolin-8-yl)pyrrolidin-1-yl)prop-2-en-1-one] | < 50 | –
25 | C=CC(=O)N1CCCC(c2nc(-c3ccc(Oc4ncccc4C#N)c(F)c3)n3c(N)nccc23)C1 (centres unmarked) [C234, 2-(4-(1-(1-acryloylpiperidin-3-yl)-5-amino-imidazo[1,5-c]pyrimidin-3-yl)-2-fluorophenoxy)nicotinonitrile] | – | < 100
